Series [1] relates to primary polyclonal rabbit anti-OXT IgG (Cayman Chemical Company OXT EIA, secondary monoclonal mouse anti-rabbit IgG). Kind of series: OXT EIA cross-reactivity, Cayman Chemical Company kit. It is filed as binding.
The nature of series [2]: Reversed phase SPE of OXT from pure solution. In kind it is physicochemical. Particulars: 200 pg/ml pure OXT solution, 0.1% TFA-H2O, separate C-18 column elutions, Enzo Life Sciences EIA.
Series [3] concerns primary polyclonal rabbit anti-OXT IgG (Enzo Life Sciences OXT EIA, secondary polyclonal goat anti-rabbit IgG). The following applies: competitive EIA; published IC50; ref manufacturer (Enzo Life Sciences); cited from earlier work.
The test system of series [4] is primary polyclonal rabbit anti-OXT IgG (Cayman Chemical Company OXT EIA, secondary monoclonal mouse anti-rabbit IgG). The following applies: competitive EIA; ref manufacturer (Cayman Chemical Company); cited from earlier work.
The conditions of series [5]: same ultrafiltration columns, cited from earlier work.

For Immunoglobulin G, the “cross-reactivity (IC50(OXT)/IC50(interfering protein))” value (“cross-reactivity” below) in series [1] is less than 0.01%.

As to Immunoglobulin M, in series [1], the “cross-reactivity” value is on record as less than 0.01%.

On to Transferrin, for which the “cross-reactivity” value in series [1] was less than 0.01%.

Consider oxytocin [OXT], for which, in series [2] (30–40% ACN range, CV for three columns 30.8–136.5%), the “OXT recovered in the eluate, reversed phase SPE” value is listed as 10.1–49.1%. Besides, the “total amount of OXT measured in all fractions (load, wash, eluate) as % of the original sample” value in series [2] is 37.1–92.2%. Besides, the “IC50 of the Enzo Life Sciences OXT assay” value in series [3] is 0.228 ng/mL. The “mean IC50 of the Cayman Chemical Company OXT assay” value in series [4] is 0.08 ng/mL. Further, the “OXT recovery rate from plasma, ultrafiltration” value in series [5] (plasma) is 91.8%. Also, the “OXT recovery rate from saliva, ultrafiltration” value in series [5] (saliva) was 68.4%.

The values above are taken from article PMC10285453 (Comprehensive Psychoneuroendocrinology, 2023).
